Reference: patent US20250345392A1, “ANNEXIN A1 LIQUID PHARMACEUTICAL COMPOSITION” (ResoTher Pharma A/S, priority 2022, published 2025)
Read-outs that look alike come from different tables or passages of the source. Ends that are not written are not given here.

Test: Clinical test in humans, single 30-min i.v. infusion, plasma PK
Assay type: in vivo
Settings: human; for AUC(0-inf) / Cmax / Vd / clearance / AUC(0-t) / half-life / Tmax: in vivo, iv
Method: A total of 8 healthy subjects were included in each group. Group 1 received 25 μg/kg of Peptide 1, Group 2 received 50 μg/kg of Peptide 1, Group 3 received 100 μg/kg of Peptide 1, Group 4 received 150 μg/kg of Peptide 1, Group 5 received 200 μg/kg of Peptide 1 and Group 7 received 400 μg/kg of Peptide 1.
The tested liquid pharmaceutical composition has a pH of 8.2-8.4, and comprises the following: • i) 5 mg/ml of Peptide 1, • ii) 4% (w/w) mannitol, • iii) 1% (w/w) sucrose, • iv) 0.01% (w/w) Polysorbate-80, • v) 10 mM glycyl-glycine, and • vi) sterile water for injection.
In these groups, 6 subjects received the active treatment (i.e. a single Peptide 1 30-min intravenous (i.v.) infusion corresponding to the above doses) and 2 received the placebo. In order to prevent any anticipated unblinding, the subjects under active treatment were recorded by the bioanalytical laboratory.
Blood samples were collected for PK purpose for Peptide 1 determinations on Day 1 at the following time points: pre-dose, then, 10 min, 20 min, 30 min (30 min=0.5), 0.75, 1.0, 1.5, 2.0, 2.5, 3.0, 4.0, 6.0, 8.0, 12.0, 16.0 and 24.0 h after the infusion start.
Venous whole blood samples were collected from all subjects.
Plasma samples were analyzed for Peptide 1 using validated Liquid chromatography—Tandem Mass spectrometry (LC-MS/MS) methods by Charles River Laboratories (CRL).
Derivation of PK parameters were carried out by PhinC Development using Phoenix WinNonlin® (Version Phoenix 8.1—Certara—Princeton—USA). A non-compartmental analysis (NCA) approach was chosen.
For the calculation of the PK parameters and characteristics the following rules were applied: • All the plasma concentrations validated by the bioanalytical laboratory and provided to the pharmacokineticist were used for the PK analysis. • The theoretical PK blood sampling time points were used. • At time points in the lag-time between time zero and the first concentration equal or above limit of quantification (LOQ), concentrations below the LOQ (BLQ) were set to zero (0). • Concentrations BLQ between 2 concentrations equal or above LOQ were considered as missing. • Trailing concentrations (at time point between time of last measurable concentrations and time of last blood sample) BLQ were not used in calculations. • For concentration above the upper limit of quantification and reported as above limit of quantification (ALQ) in the final plasma concentration tables, ALQ was considered as missing for the PK analysis. • Not reported (NR) concentration was excluded from the PK analysis. • For the first administration, if pre-dose concentration was less than or equal to 5% of Cmax value in a PK profile, the subject's data was included in all PK measurements and calculations without any adjustments. If the pre-dose value was greater than 5% of Cmax, the subject was dropped from all statistical evaluations.
The following PK parameters of Peptide 1, were derived for each subject receiving the active treatment on Day 1: • Cmax: The observed maximum concentration in plasma measured in a subject after dosing identified by inspection of the plasma drug concentration versus (vs.) time data by WinNonlin®. • tmax: The time at which Cmax was apparent, identified by inspection of the plasma drug concentration vs. time data by Phoenix WinNonlin®. • AUC0-24: The area under the concentration-time curve from time zero (pre-dose) to 24 h was calculated using a linear trapezoidal method. AUC0-24 was only calculated if there were at least 3 concentrations above LOQ. • AUC0-t: The area under the concentration-time curve from time zero (pre-dose) to the time of last quantifiable concentration was calculated using a linear trapezoidal method. The AUC was only calculated if there were at least 3 concentrations above LOQ. • ke: The terminal plasma elimination rate-constant was estimated from log-linear regression analysis of the terminal phase of the plasma concentration-time profile. […]

[1] = 25 ug/kg, single 30-min i.v. infusion 25 μg/kg, GM
[2] = 50 ug/kg, single 30-min i.v. infusion 50 μg/kg, mean
[3] = 100 ug/kg, single 30-min i.v. infusion 100 μg/kg, mean
[4] = 150 ug/kg, single 30-min i.v. infusion 150 μg/kg, GM
[5] = 150 ug/kg, single 30-min i.v. infusion 150 μg/kg, mean
[6] = 200 ug/kg, single 30-min i.v. infusion 200 μg/kg, GM
[7] = 400 ug/kg, single 30-min i.v. infusion 400 μg/kg, mean
[8] = single 30-min i.v. infusion 25 μg/kg, mean
[9] = single 30-min i.v. infusion 50 μg/kg, GM
[10] = single 30-min i.v. infusion 100 μg/kg, GM
[11] = single 30-min i.v. infusion 200 μg/kg, mean
[12] = single 30-min i.v. infusion 400 μg/kg, GM
[13] = single 30-min i.v. infusion 400 μg/kg, mean

increase of exposure parameters (Cmax and AUCs) (between 100 μg/kg and 400 μg/kg (dose increased by 4-fold)): about 4.3 fold
increase of exposure parameters (Cmax and AUCs) (between 150 μg/kg and 400 μg/kg (dose increased by 2.7-fold)): around 3.2 fold
increase of exposure parameters (Cmax and AUCs) (between 200 μg/kg and 400 μg/kg (dose increased by 2 fold)): around 2 fold
AUC(0-inf) [1]: 211 ng·h/mL
Cmax [1]: 161 ng/mL
Vd [1]: 0.13 L/kg
clearance [1]: 2 mL/min/kg
AUC(0-t) (25 ug/kg, single 30-min i.v. infusion 25 μg/kg, GM, read-out: AUC0-24): 211 ng·h/mL
AUC(0-t) (25 ug/kg, single 30-min i.v. infusion 25 μg/kg, GM, read-out: AUC0-t): 130 ng·h/mL
half-life (25 ug/kg, single 30-min i.v. infusion 25 μg/kg, GM, read-out: t1/2 (converted)): 47.4 min
Vd (25 ug/kg, single 30-min i.v. infusion 25 μg/kg, mean): 0.14 L/kg
AUC(0-t) (25 ug/kg, single 30-min i.v. infusion 25 μg/kg, mean, read-out: AUC0-t): 132 ng·h/mL
AUC(0-inf) (50 ug/kg, single 30-min i.v. infusion 50 μg/kg, GM): 456 ng·h/mL
AUC(0-t) (50 ug/kg, single 30-min i.v. infusion 50 μg/kg, GM, read-out: AUC0-24): 457 ng·h/mL
AUC(0-t) (50 ug/kg, single 30-min i.v. infusion 50 μg/kg, GM, read-out: AUC0-t): 369 ng·h/mL
half-life (50 ug/kg, single 30-min i.v. infusion 50 μg/kg, GM, read-out: t1/2 (converted)): 54 min
AUC(0-inf) [2]: 464 ng·h/mL
Cmax [2]: 375 ng/mL
Vd [2]: 0.14 L/kg
clearance [2]: 1.83 mL/min/kg
AUC(0-t) (50 ug/kg, single 30-min i.v. infusion 50 μg/kg, mean, read-out: AUC0-24): 464 ng·h/mL
AUC(0-t) (50 ug/kg, single 30-min i.v. infusion 50 μg/kg, mean, read-out: AUC0-t): 378 ng·h/mL
half-life (50 ug/kg, single 30-min i.v. infusion 50 μg/kg, mean, read-out: t1/2 (converted)): 55.2 min
Cmax (100 ug/kg, single 30-min i.v. infusion 100 μg/kg, GM): 899 ng/mL
half-life (100 ug/kg, single 30-min i.v. infusion 100 μg/kg, GM, read-out: t1/2 (converted)): 67.8 min
AUC(0-inf) [3]: 1110 ng·h/mL
Cmax [3]: 916 ng/mL
Vd [3]: 0.15 L/kg
clearance [3]: 1.5 mL/min/kg
AUC(0-t) (100 ug/kg, single 30-min i.v. infusion 100 μg/kg, mean, read-out: AUC0-24): 1110 ng·h/mL
AUC(0-t) (100 ug/kg, single 30-min i.v. infusion 100 μg/kg, mean, read-out: AUC0-t): 1000 ng·h/mL
half-life (100 ug/kg, single 30-min i.v. infusion 100 μg/kg, mean, read-out: t1/2 (converted)): 69 min
AUC(0-inf) [4]: 1490 ng·h/mL
Cmax [4]: 1250 ng/mL
Vd [4]: 0.16 L/kg
AUC(0-t) (150 ug/kg, single 30-min i.v. infusion 150 μg/kg, GM, read-out: AUC0-24): 1490 ng·h/mL
AUC(0-t) (150 ug/kg, single 30-min i.v. infusion 150 μg/kg, GM, read-out: AUC0-t): 1370 ng·h/mL
half-life (150 ug/kg, single 30-min i.v. infusion 150 μg/kg, GM, read-out: t1/2 (converted)): 67.8 min
AUC(0-inf) [5]: 1520 ng·h/mL
Cmax [5]: 1280 ng/mL
Vd [5]: 0.17 L/kg
clearance [5]: 1.67 mL/min/kg
AUC(0-t) (150 ug/kg, single 30-min i.v. infusion 150 μg/kg, mean, read-out: AUC0-24): 1520 ng·h/mL
AUC(0-t) (150 ug/kg, single 30-min i.v. infusion 150 μg/kg, mean, read-out: AUC0-t): 1400 ng·h/mL
half-life (150 ug/kg, single 30-min i.v. infusion 150 μg/kg, mean, read-out: t1/2 (converted)): 69 min
AUC(0-inf) [6]: 2280 ng·h/mL
Cmax [6]: 1700 ng/mL
Vd [6]: 0.18 L/kg
clearance [6]: 1.5 mL/min/kg
AUC(0-t) (200 ug/kg, single 30-min i.v. infusion 200 μg/kg, GM, read-out: AUC0-24): 2280 ng·h/mL
AUC(0-t) (200 ug/kg, single 30-min i.v. infusion 200 μg/kg, GM, read-out: AUC0-t): 2120 ng·h/mL
half-life (200 ug/kg, single 30-min i.v. infusion 200 μg/kg, GM, read-out: t1/2 (converted)): 86.4 min
AUC(0-inf) [7]: 4870 ng·h/mL
Vd [7]: 0.19 L/kg
clearance [7]: 1.33 mL/min/kg
AUC(0-t) (400 ug/kg, single 30-min i.v. infusion 400 μg/kg, mean, read-out: AUC0-24): 4870 ng·h/mL
AUC(0-t) (400 ug/kg, single 30-min i.v. infusion 400 μg/kg, mean, read-out: AUC0-t): 4720 ng·h/mL
half-life (400 ug/kg, single 30-min i.v. infusion 400 μg/kg, mean, read-out: t1/2 (converted)): 98.4 min
AUC(0-inf) [8]: 211 ng·h/mL
Cmax [8]: 162 ng/mL
clearance [8]: 2 mL/min/kg
AUC(0-t) (single 30-min i.v. infusion 25 μg/kg, mean, read-out: AUC0-24): 211 ng·h/mL
half-life (single 30-min i.v. infusion 25 μg/kg, mean, read-out: t1/2 (converted)): 47.4 min
Cmax [9]: 371 ng/mL
Vd [9]: 0.14 L/kg
clearance [9]: 1.83 mL/min/kg
AUC(0-inf) [10]: 1100 ng·h/mL
Vd [10]: 0.15 L/kg
clearance [10]: 1.5 mL/min/kg
AUC(0-t) (single 30-min i.v. infusion 100 μg/kg, GM, read-out: AUC0-24): 1100 ng·h/mL
AUC(0-t) (single 30-min i.v. infusion 100 μg/kg, GM, read-out: AUC0-t): 991 ng·h/mL
clearance (single 30-min i.v. infusion 150 μg/kg, GM): 1.67 mL/min/kg
AUC(0-inf) [11]: 2280 ng·h/mL
Cmax [11]: 1700 ng/mL
Vd [11]: 0.18 L/kg
clearance [11]: 1.5 mL/min/kg
AUC(0-t) (single 30-min i.v. infusion 200 μg/kg, mean, read-out: AUC0-24): 2280 ng·h/mL
AUC(0-t) (single 30-min i.v. infusion 200 μg/kg, mean, read-out: AUC0-t): 2120 ng·h/mL
half-life (single 30-min i.v. infusion 200 μg/kg, mean, read-out: t1/2 (converted)): 87 min
AUC(0-inf) [12]: 4840 ng·h/mL
Cmax [12]: 3400 ng/mL
Vd [12]: 0.19 L/kg
clearance [12]: 1.33 mL/min/kg
AUC(0-t) (single 30-min i.v. infusion 400 μg/kg, GM, read-out: AUC0-24): 4840 ng·h/mL
AUC(0-t) (single 30-min i.v. infusion 400 μg/kg, GM, read-out: AUC0-t): 4690 ng·h/mL
half-life (single 30-min i.v. infusion 400 μg/kg, GM, read-out: t1/2 (converted)): 97.2 min
Cmax [13]: 3420 ng/mL
Vd [13]: ~0.19 L/kg
clearance [13]: ~1.33 mL/min/kg
half-life (single 30-min i.v. infusion, range at all dose levels, read-out: GM t1/2): 48 to 96 min
time of first measurable concentrations after the start of infusion (single 30-min i.v. infusion, all subjects): 0.16 h
time up to which concentrations were measurable in all subjects after the start of infusion (single 30-min i.v. infusion, highest dose): at least 6 hours
time up to which concentrations were measurable in all subjects after start of the infusion (single 30-min i.v. infusion, lowest dose): at least 1 hour
Tmax [1]: 30 min
Tmax (50 ug/kg, single 30-min i.v. infusion 50 μg/kg, median): 30 min
Tmax (100 ug/kg, single 30-min i.v. infusion 100 μg/kg, median): 30 min
Tmax (150 ug/kg, single 30-min i.v. infusion 150 μg/kg, median): 30 min
Tmax [6]: 30 min
Tmax (400 ug/kg, single 30-min i.v. infusion 400 μg/kg, median): 30 min
Tmax (single 30-min i.v. infusion, all subjects (time of the end of infusion)): 30 min
Substance: AMVSEFLKQAWFIENEEQEYVQTLKSSKGGPGSAVSPYPTFNPSSDV-NH2 [Peptide 1]
